Results as given in patent publication US11174230B2, “(E)-4-(4-acrylamidophenoxy)-N-methylpicolinamide conjugates as potential anticancer agents” (Council of Scientific & Industrial Research, priority 2016, dated 2021).

Experiments:
Settings in all cases: after 48 h of drug treatment, average of three individual experiments
HepG2 = test: MTT cytotoxicity assay, HepG2 liver cancer cells; type: cell-based, human
Description: (§1) The (E)-4-(4-acrylamidophenoxy)-N-methylpicolinamide conjugates of general formulae 6a-6z and 7a-7aj have been evaluated for their cytotoxicity in selected human cancer cell lines i.e., lung (A549), prostate (DU-145), ovarian (SKOV3) and liver (HepG2) using MTT assay and the values obtained were compared to a standard drug sorafenib, with the concentration (treatment done at ranging from 10^−4 to 10^−8 M) of the compound produces to 50% inhibition of cell growth (IC50) as shown in Table 1. […] The IC50 values (in μM) for compounds 6b, 6c, 6d, 6e, 6g, 6l, 6m, 6o, 6p, 6q, 6t, 6z, 7b and 7g have been illustrated in Table 1.

SKOV3 = test: MTT cytotoxicity assay, SKOV3 ovarian cancer cells; type: cell-based
Description: as §1

DU145 = test: MTT cytotoxicity assay, DU145 prostate cancer cells; type: cell-based
Description: as §1

A549 = test: MTT cytotoxicity assay, A549 lung cancer cells; type: cell-based
Description: as §1

SMILES	IC50 (HepG2; Homo sapiens, HepG2, 48 h) [µM]	IC50 (HepG2) [µM]	IC50 (SKOV3; SK-OV-3, Human ovarian cancer) [µM]	IC50 (DU145; DU-145, Human prostate cancer) [µM]	IC50 (A549; A549, Human lung cancer) [µM]	IC50 (A549; Human lung cancer) [µM]	IC50 (DU145; Human prostate cancer) [µM]	IC50 (SKOV3; Human ovarian cancer) [µM]
CNC(=O)c1cc(Oc2ccc(NC(=O)/C=C/c3ccc(OC)cc3)cc2)ccn1 [Compound 6b, (E)-4-(4-(3-(4-methoxyphenyl)acrylamido)phenoxy)-N-methylpicolinamide]	8 to 13	9.5	10.6 ± 0.32	–	–	–	–	–
CNC(=O)c1cc(Oc2ccc(NC(=O)/C=C/c3cccc(OC)c3OC)cc2)ccn1 [Compound 6c, (E)-4-(4-(3-(2,3-dimethoxyphenyl)acrylamido)phenoxy)-N-methylpicolinamide]	8 to 13	12.4 ± 0.16	–	–	–	–	–	–
CNC(=O)c1cc(Oc2ccc(NC(=O)/C=C/c3cc(OC)c(OC)c(OC)c3)cc2)ccn1 [Compound 6d, (E)-N-methyl-4-(4-(3-(3,4,5-trimethoxyphenyl)acrylamido)phenoxy)picolinamide]	8 to 13	10.2	–	21.1 ± 0.18	–	–	–	–
CNC(=O)c1cc(Oc2ccc(NC(=O)/C=C/c3cc(OC)ccc3OC)cc2)ccn1 [Compound 6e, (E)-4-(4-(3-(2,5-dimethoxyphenyl)acrylamido)phenoxy)-N-methylpicolinamide]	8 to 13	10.1	–	29.5 ± 0.26	–	–	–	–
CNC(=O)c1cc(Oc2ccc(NC(=O)/C=C/c3cccc(O)c3)cc2)ccn1 [Compound 6g, (E)-4-(4-(3-(3-hydroxyphenyl)acrylamido)phenoxy)-N-methylpicolinamide]	8 to 13	10.9 ± 0.22	12 ± 0.11	–	–	–	–	–
CNC(=O)c1cc(Oc2ccc(NC(=O)/C=C/c3ccc(Cl)cc3)cc2)ccn1 [Compound 6l, (E)-4-(4-(3-(4-chlorophenyl)acrylamido)phenoxy)-N-methylpicolinamide]	8 to 13	9.6	12.6 ± 0.28	17.9 ± 0.24	–	–	–	–
CNC(=O)c1cc(Oc2ccc(NC(=O)/C=C/c3ccc(Cl)c(Cl)c3)cc2)ccn1 [Compound 6m, (E)-4-(4-(3-(3,4-dichlorophenyl)acrylamido)phenoxy)-N-methylpicolinamide]	8 to 13	12.4 ± 0.32	–	23.3 ± 0.28	9.5 ± 0.22	–	–	–
CNC(=O)c1cc(Oc2ccc(NC(=O)/C=C/c3ccc(F)cc3)cc2)ccn1 [Compound 6o, (E)-4-(4-(3-(4-fluorophenyl)acrylamido)phenoxy)-N-methylpicolinamide]	8 to 13	12.5 ± 0.18	–	–	–	–	–	–
CNC(=O)c1cc(Oc2ccc(NC(=O)/C=C/c3ccc(F)cc3F)cc2)ccn1 [Compound 6p, (E)-4-(4-(3-(2,4-difluorophenyl)acrylamido)phenoxy)-N-methylpicolinamide]	8 to 13	13.1 ± 0.26	–	–	49.4 ± 0.54	–	–	–
CNC(=O)c1cc(Oc2ccc(NC(=O)/C=C/c3ccc(F)c(F)c3)cc2)ccn1 [Compound 6q, (E)-4-(4-(3-(3,4-difluorophenyl)acrylamido)phenoxy)-N-methylpicolinamide]	8 to 13	11.1 ± 0.14	11.2 ± 0.26	–	–	–	–	–
CNC(=O)c1cc(Oc2ccc(NC(=O)/C=C/c3ccc(C(F)(F)F)cc3)cc2)ccn1 [Compound 6t, (E)-N-methyl-4-(4-(3-(4-(trifluoromethyl)phenyl)acrylamido)phenoxy)picolinamide]	8 to 13	8.2	–	–	22.3 ± 0.22	–	–	–
CNC(=O)c1cc(Oc2ccc(NC(=O)/C=C/c3ccc([N+](=O)[O-])cc3)cc2)ccn1 [Compound 6z, (E)-N-methyl-4-(4-(3-(4-nitrophenyl)acrylamido)phenoxy)picolinamide]	8 to 13	12.2 ± 0.22	–	28.7 ± 0.36	30.1 ± 0.28	–	–	–
CNC(=O)c1cc(Oc2ccc(NC(=O)/C=C/c3ccco3)cc2)ccn1 [Compound 7b, (E)-4-(4-(3-(furan-2-yl)acrylamido)phenoxy)-N-methylpicolinamide]	8 to 13	10.2	–	–	–	–	–	–
CNC(=O)c1cc(Oc2ccc(NC(=O)/C=C/c3cccs3)cc2)ccn1 [Compound 7g, (E)-N-methyl-4-(4-(3-(thiophen-2-yl)acrylamido)phenoxy)picolinamide]	8 to 13	13.2 ± 0.11	–	12.2 ± 0.26	24.1 ± 0.44	–	–	–
CNC(=O)c1cc(Oc2ccc(NC(=O)Nc3ccc(Cl)c(C(F)(F)F)c3)cc2)ccn1 [Sorafenib, reference compound]	–	14.5	–	–	–	6.1 ± 0.18	6.5 ± 0.22	9.5 ± 0.12
